Where two headings read alike, the source gives them in different places.
Legend:
Caribbean reef sharks = experiment: Cloud dispersion assay (cloud - co2); type: in vivo, C. perezii; settings: for Comments (effect on shark population): cloud, 500 mL
From the text: Another bioassay used to observe a flight response in sharks is a cloud dispersion assay on competitively feeding population of sharks. This assay is referred to as a “Cloud Dispersion Assay” or “Cloud Assay.” A pressurized fluid delivery system was designed to deliver repellent into large feeding populations of sharks. The repellent is released as a subsurface cloud, which follows the current. A 1 L plastic container containing the test chemical repellent solution is pressurized to approximately 20 psig with a battery compressor or hand pump. A globe valve is used to hold back the fluid. The fluid is delivered to the end of a long PVC pole using a Teflon tubing. This allows the operator to place the tip of the pole well into a population of feeding sharks. By actuating the small globe valve, a cloud of the chemical solution is released quickly and reliably into the feeding population. Controls are established using FD&C Red 40 dye and seawater, uncolored seawater, and air. These controls establish that sharks are not afraid to approach the delivery pole, nor are sharks deterred from feeding by the jet of control fluid or air.
Syringe 3/5/10, Hd Syringe and Micropipette assays were carried out as described in Examples 1 and 2.

lemon sharks [1] = experiment: Tonic immobility, Hd Syringe Assay; type: in vivo, N. brevirostris; settings: lemon sharks
Procedure: (§1) One bioassay used to observe and measure flight response is the tonic immobility test. Tonic immobility is a state of paralysis that typically occurs when a shark is subject to inversion of its body along the longitudinal axis. This state is called “tonic,” and the shark can remain in this state for up to 15 minutes thereby allowing researchers to observe effects of chemical repellents. The “tonic” state of the shark is first established by releasing seawater in proximity to the “tonic” shark with the same delivery instrument and at the same distance as a “test” repellent compound will be released. Some controls are released with a high flow rate (30 mL/sec) in order to establish that sharks are not awakened by a jet of fluid over their noses. Once behavioral controls are established, a compound or composition that may have a repelling effect is delivered to the shark. If the compound or composition engenders a flight response, the shark will awaken from the tonic state and rapidly attempt to flee the delivered repellent. Using this tonic immobility bioassay researches can quantify the strength of a repellent effect.
(§2) Lemon, nurse, blacktip and tiger sharks were placed in tonic immobility by inverting the shark's body along its longitudinal axis. […] The “tonic” state of each shark was first established by releasing a control of seawater in proximity to the shark with the same delivery instrument and at the same distance as the chemical repellent would later be delivered. In certain controls, sea water was released with a high flow rate (30 mL/sec) in order to establish that the sharks would not be awakened by a jet of fluid over their noses.
Once behavioral controls were established, the chemical repellent was delivered to the shark using the Hd Syringe Assay method, the Syringe 3/5/10 Assay method, the Bite Assay method or the Micropipette Assay method. […]

[2] = test system: sharks (lemon, nurse, tiger pooled); experiment: Tonic immobility, Hd Syringe Assay, summary over species; type: in vivo; settings: species pooled
Procedure: as §1
In Hd-Syringe Assays, the 3-methylbutanal was delivered to the shark's mouth and nares using a 3 mL hypodermic syringe fitted with a 22 gauge needle. The needle was held within 3 inches of the shark's mouth and the test repellent was slowly released from the syringe with a very fine plume in the water column. Any response was denoted. If a response occurred during a measurable time after delivery of the test chemical, the time between delivery and response was noted. If a response occurred immediately or the response occurred before a measurable time could be established, no time to response was noted.

blacktip sharks = experiment: Tonic immobility, Syringe 3/5/10 Assay; type: in vivo, C. limbatus
Procedure: as §1
(§3) In the tonic immobility studies disclosed herein, several different methods were employed for delivery of repelling compounds. A first method for delivery of chemical repellent in tonic immobility studies employed a “Syringe 3/5/10 Assay” method. The “Syringe 3/5/10 Assay” method is so named because a test repellent is delivered to a shark from a distance of about “3” inches with a bolus of about “5” mL with a response to the test repellent considered positive if the shark reacts with a change in behavior within less than about “10” seconds from the time of delivery.
(§4) The “3/5/10 Syringe Assay” as employed herein delivered a dose of 5-6 mL of a test chemical repellent from a syringe fixed with a needle having a gauge of about 22 from a distance at least 3 inches in front of a shark. Because the test chemical repellent was delivered at a distance from the shark's nares and mouth, a cloud of test chemical repellent was dispersed over the shark within the water column. The dispersed test repellent was subject to water current direction, dispersion and dilution. As a result, a flight response within 10 seconds was considered a positive repellency response. […] Time from delivery to response is related to the size of the bolus delivered from the syringe, distance of the shark from the syringe and water current.
as §2
(§5) Once behavioral controls were established, the chemical repellent was delivered to the shark using the Hd Syringe Assay method, the Syringe 3/5/10 Assay method, the Bite Assay method or the Micropipette Assay method. […] If tonic immobility was terminated, the positive response was denoted as “Y.” If tonic immobility was not terminated but a behavior change within tonic immobility was noted, such as the opening of the mouth or a cough, the response was denoted as an “R” for reduced response. If no behavior change was observed, the negative response was denoted “N.”
In Syringe 3/5/10 Assays, 5-6 mL of 3-methylbutanal was delivered at least 3 inches in front of the shark's mouth. A cloud of the repellent dispersed over the shark within the water column. […] As noted above, because the dispersion of the chemical repellent upon delivery is affected by volume of repellent, water current, and other factors, the time between delivery and response was not correlatable with the potency of the repellent. […]

nurse sharks [3] = experiment: Tonic immobility, Hd Syringe Assay; type: in vivo, C. cirratum; settings: juvenile nurse shark
Procedure: as §1
Lemon, nurse, blacktip and tiger sharks were placed in tonic immobility by inverting the shark's body along its longitudinal axis. […]

[4] = test system: juvenile lemon and nurse sharks; experiment: Tonic immobility, Micropipette Assay, summary over species; type: in vivo; settings: for Micropipette Y (termination of tonic immobility), trials of trials: juvenile lemon and nurse sharks, oral dose
Procedure: as §1
(§6) A fourth method of delivery was called the “Micropipette Assay” method of delivery. In this method, a very small dose (fraction of a mL) of a test substance was delivered directly into a shark's mouth. […] A response, such as a cough or other notable action of the shark, was usually noted when effective gustatory repellents were delivered directly into a shark's mouth while in tonic immobility.
(§7) The Micropipette Assay method has not proven to be a particularly effective method of assaying for a flight response in elasmobranchs. The Micropipette Assay method is, nevertheless, an excellent method for specifying that a gustatory response has occurred. It is effective for specifying a gustatory response because the micropipette delivery method allows direct delivery of an entire bolus of test substance into the mouth of the shark being tested.
An oral dose of no more than 400 microliters was then delivered by micropipette into the mouth of a juvenile nurse shark. Tonic immobility was terminated. For each derivative of butyric acid and each naturally occurring acid listed in Table 9, a first micropipette assay was performed on a juvenile lemon shark with no more than 100 microliters of test acid in an oral dose. A second micropipette assay was then performed on a juvenile nurse shark with no more than 400 microliters of test acid in an oral dose. In each test, tonic immobility was terminated.
In a first set of studies on the effectiveness of carboxylic acids as elasmobranch repellents, each tested substance was subjected to the following protocol. […] An oral dose of no more than 400 microliters was then delivered by micropipette into the mouth of a juvenile nurse shark. Tonic immobility was terminated. […] The data evidences the gustatory repelling activity of carboxylic acids.

nurse sharks [5] = experiment: Tonic immobility, Syringe 3/5/10 Assay; type: in vivo, C. cirratum; settings: Table 24; nurse shark; syringe 3/5/10 delivery; 6 ml; mouth
[6] = test system: sharks (lemon, nurse, blacktip, tiger, blacknose pooled); experiment: Tonic immobility, Syringe 3/5/10 Assay, summary over species; type: in vivo
Procedure: as §1, §3, §4
In Syringe 3/5/10 Assays, 5-6 mL of 3-methylbutanal was delivered at least 3 inches in front of the shark's mouth. A cloud of the repellent dispersed over the shark within the water column. […] As noted above, because the dispersion of the chemical repellent upon delivery is affected by volume of repellent, water current, and other factors, the time between delivery and response was not correlatable with the potency of the repellent.

nurse sharks [7] = experiment: Tonic immobility, Micropipette Assay; type: in vivo, C. cirratum
Procedure: as §1, §6
The Micropipette Assay method has not proven to be a particularly effective method of assaying for a flight response in elasmobranchs. The Micropipette Assay method is, nevertheless, an excellent method for specifying that a gustatory response has occurred. It is effective for specifying a gustatory response because the micropipette delivery method allows direct delivery of an entire bolus of test substance into the mouth of the shark being tested. […]

juvenile sharks = experiment: Initial tonic immobility assays, mouth delivery by micropipette or syringe; type: in vivo; settings: introduced to the mouth using a micropipette or syringe
lemon sharks [8] = experiment: Tonic immobility, Micropipette Assay; type: in vivo, N. brevirostris; settings: juvenile lemon shark, micropipette
Procedure: as §1, §6, §7
Using a microliter syringe or microliter pipette, a bolus of test chemical can be directed precisely into one of the shark's nares, or its mouth. […] Olfactory repellents will terminate tonic immobility almost immediately when injected into a nare of the shark.
as §2, §5
Further because the Micropipette assays were often done serially on the same set of sharks, second and third doses of the repellent over time would be expected to evoke less of a reaction. Nevertheless, the small doses delivered to the shark in the Micropipette assay provide important data on whether a compound is a gustatory stimulant because the small dose may be delivered directly into the mouth of the shark. This eliminates any olfactory response that might be acting in concert with a gustatory response to terminate tonic immobility.

[9] = listed as crotonic acid solution

Cc1cccnc1N [2-amino-3-picoline]
T? (Caribbean reef sharks; cloud - co2, 500 mL): Y
Comments (effect on shark population) (Caribbean reef sharks): population decreased
Comments (effect on shark population) (Caribbean reef sharks; listed as 2-amino-3-picoline 95% cut to 10% w/w with desalinated water): population decrease

Cc1c(N)c(=O)n(-c2ccccc2)n1C [4-aminoantipyrine]
Hd Syringe assays terminating tonic immobility (lemon sharks [1]): all assays terminated tonic immobility
Hd-Syringe Y (termination of tonic immobility), trials of trials [2]: terminated tonic immobility in all tests
Hd-Syringe Y (termination of tonic immobility), trials of trials ([2]; listed as 4-amino-antipyrine): five of five
Hd-Syringe Y (termination of tonic immobility), trials of trials ([2]; listed as 4-amino-antipyrine (metapirazone)): 5/5
Syringe 3/5/10 assays with no response (blacktip sharks; blacktip sharks): no response
Hd Syringe assays terminating tonic immobility (nurse sharks [3]): terminated

O=C(O)CC(O)(CC(=O)O)C(=O)O [Citric acid 50% w/w, Citric acid]
Micropipette Y (termination of tonic immobility), trials of trials [4]: 2/2
T? (termination of tonic immobility) (nurse sharks [5]): R
Hd Syringe assays terminating tonic immobility (lemon sharks [1]): four of four
Hd-Syringe Y (termination of tonic immobility), trials of trials [2]: 4/4
T? (termination of tonic immobility) (blacktip sharks; Table 24, blacktip shark, syringe 3/5/10 delivery, 6 ml, mouth longline): Y

c1ccncc1 [Pyridine, pyridine]
Syringe 3/5/10 R (behavior response within tonic immobility), trials of trials [6]: 1/4
Syringe 3/5/10 Y (termination of tonic immobility), trials of trials [6]: 3/4
Syringe 3/5/10 R (behavior response within tonic immobility), trials of trials ([6]; listed as pyridine): one of four
Syringe 3/5/10 Y (termination of tonic immobility), trials of trials ([6]; listed as pyridine): three of four
Micropipette assay outcome (nurse sharks [7]; nurse shark, about 500 microliters into the mouth): did not evoke a response
result of initial tonic immobility assays (juvenile sharks): terminated tonic immobility

CC=CC(=O)O [crotonic acid solution (2-butenoic acid), 2-butenoic acid]
Micropipette Y (termination of tonic immobility), trials of trials [4]: 2/2
screening result ([4]; lemon and nurse sharks): shark repelling compounds
T? (termination of tonic immobility) (nurse sharks [5]): Y and R
Syringe 3/5/10 N (no response), trials of trials [6]: 2/7
Syringe 3/5/10 R (behavior response within tonic immobility), trials of trials [6]: 1/7
Syringe 3/5/10 Y (termination of tonic immobility), trials of trials [6]: 4/7
Syringe 3/5/10 N (no response), trials of trials [6, 9]: two of the seven
Syringe 3/5/10 R (behavior response within tonic immobility), trials of trials [6, 9]: one of the seven
Syringe 3/5/10 Y (termination of tonic immobility), trials of trials [6, 9]: four of the seven

CCCC(=O)O [n-Butyric Acid, n-butyric acid]
Micropipette Y (termination of tonic immobility), trials of trials [4]: 2/2
Micropipette Y (termination of tonic immobility), trials of trials ([4]; listed as butyric acid): termination of tonic immobility
mouth dose at which tonic immobility was terminated ([4]; juvenile lemon or nurse sharks): 100 µL
oral dose that terminated tonic immobility (nurse sharks [7]; juvenile nurse shark, micropipette): no more than 400 microliters
oral dose that terminated tonic immobility (lemon sharks [8]): no more than 100 microliters

From patent US9456589B2, “Elasmobranch-repelling compounds and methods of use” (priority 2005, dated 2016)
